Source: patent publication US20060069132A1, “Azolecarboxamide herbicides” (priority 2004, published 2006)

Tests used:
Assay in all cases: Test J Compounds 2 and 6 alone and in combination with other herbicides, foliage spray
Conditions in all cases: applied alone
large crabgrass (DIGSA) = assay type: in vivo, Digitaria sanguinalis; parameters: key to DIGSA Obsd.: 0 = no effect, 100 = complete control
Text: (§1) Colby's Equation was used to calculate the expected additive herbicidal effect of the mixtures of Compound 6 with Harmony® Extra (i.e. a 2:1 mixture by weight of thifensulfuron-methyl and tribenuron-methyl). Colby's Equation (Colby, S. R. “Calculating Synergistic and Antagonistic Responses of Herbicide Combinations,” Weeds, 15(1), pp 20-22 (1967)) calculates the expected additive effect of herbicidal mixtures, and for two active ingredients is of the form: Pa+b=Pa+Pb−(PaPb/100) wherein • Pa+b is the percentage effect of the mixture expected from additive contribution of the individual components, • Pa is the observed percentage effect of the first active ingredient at the same use rate as in the mixture, and • Pb is the observed percentage effect of the second active ingredient at the same use rate as in the mixture.
(§2) Seeds of test plants consisting of barnyardgrass (ECHCG; Echinochloa crus-galli (L.) Beauv.), blackgrass (ALOMY; Alopecurus myosuroides Huds.), Surinam grass (BRADC; Urochloa decumbens (Staph) R. D. Webster, previously named Brachiaria decumbens Stapf), cocklebur (XANST, Xanthium strumarium L.), corn (ZEAMD, Zea mays L. cv. ‘Pioneer 33G26’), large crabgrass (DIGSA, Digitaria sanguinalis (L.) Scop.), giant foxtail (SETFA, Setaria faberi Herrm.), lambsquarters (CHEAL, Chenopodium album L.), morningglory (IPOCO, Ipomoea coccinea L.), pigweed (AMARE, Amaranthus retroflexus L.), velvetleaf (ABUTH, Abutilon theophrasti Medik.) wheat (TRZAS, Triticum aestivum L. cv. ‘Recital’) and wild oat (AVEFA, Avena fatua L.) were planted in Redi-Earth® planting medium (Scotts Company, 14111 Scottslawn Road, Marysville, Ohio 43041) comprising spaghnum peat moss and vermiculite. Seeds of small-seeded species were planted about 1 cm deep; larger seeds were planted about 2.5 cm deep. Plants were grown in a greenhouse using supplemental lighting to maintain a photoperiod of about 14 hours; daytime and nighttime temperatures were about 24-30° C. and 22-25° C., respectively. Balanced fertilizer was applied through the watering system. The plants were grown for 7 to 11 days so that at time of treatment the plants ranged in height from 2 to 18 cm (1- to 4-leaf stage). Treatments consisted of Compounds 2 and 6 (technical material), atrazine (90DF), terbacil (Sinbar® 80DF), hexazinone (Velpar® 75WG), diuron (Karmex® 80WP) and paraquat (Gramoxone® Extra, 37%) alone and in combination, suspended or dissolved in an aqueous solvent comprising a nonionic surfactant and applied as a foliage spray using a volume of 541 L/ha. Each treatment was triply replicated. […] Treated plants and controls were maintained in the greenhouse and watered as needed with care to not wet the foliage for the first 24 hours after treatment. The effects on the plants 15 days after treatment were visually compared to untreated controls. Plant response ratings, listed in Table J as the means of the thee replicates, are based on a scale of 0 to 100 where 0 is no effect and 100 is complete control. Also listed in Table J are the expected effects for the mixtures calculated using Colby's Equation.

Surinam grass (BRADC) = assay type: in vivo, Urochloa decumbens; parameters: key: 0 = no effect, 100 = complete control
Text: as §1, §2

pigweed (AMARE) = assay type: in vivo, Amaranthus retroflexus; parameters: key: 0 = no effect, 100 = complete control
Text: as §1, §2

lambsquarters (CHEAL) = assay type: in vivo, Chenopodium album; parameters: key: % herbicidal effect (observed)
Text: as §1, §2

wild oat (AVEFA) = assay type: in vivo, Avena fatua; parameters: key: 0 = no effect, 100 = complete control
Text: as §1, §2

giant foxtail (SETFA) = assay type: in vivo, Setaria faberi; parameters: key: 0 = no effect, 100 = complete control
Text: as §2

barnyardgrass (ECHCG) = assay type: in vivo, Echinochloa crus-galli; parameters: key: percentage herbicidal effect (observed)
Text: as §1, §2

cocklebur (XANST) = assay type: in vivo, Xanthium strumarium; parameters: key: 0 = no effect, 100 = complete control
Text: as §2

blackgrass (ALOMY) = assay type: in vivo, Alopecurus myosuroides; parameters: key: 0 = no effect, 100 = complete control
Text: as §1, §2

morningglory (IPOCO) = assay type: in vivo, Ipomoea coccinea; parameters: key: 0 = no effect, 100 = complete control
Text: as §2

wheat (TRZAS) = assay type: in vivo, Triticum aestivum; parameters: key: 0 = no effect, 100 = complete control
Text: as §1, §2

velvetleaf (ABUTH) = assay type: in vivo, Abutilon theophrasti; parameters: key: 0 = no effect, 100 = complete control
Text: as §1, §2

corn (ZEAMD) = assay type: in vivo, Zea mays; parameters: key: percentage herbicidal effect (observed)
Text: as §1, §2

In the case of `CN(C)C(=O)Nc1ccc(Cl)c(Cl)c1` [diuron], the “DIGSA Obsd.” value (large crabgrass (DIGSA); 250 g a.i./ha) is reported as 68, the “DIGSA Obsd.” value (large crabgrass (DIGSA); 500 g a.i./ha) is reported as 63 and the “BRADC Obsd.” value (Surinam grass (BRADC); 250 g a.i./ha) is reported as 68. The “BRADC Obsd.” value (Surinam grass (BRADC); 500 g a.i./ha) was 85, the “AMARE Obsd.” value (pigweed (AMARE); 250 g a.i./ha) was 95 and the “AMARE Obsd.” value (pigweed (AMARE); 500 g a.i./ha) was 100. The “CHEAL Obsd.” value (lambsquarters (CHEAL); 250 g a.i./ha) was 98, the “CHEAL Obsd.” value (lambsquarters (CHEAL); 500 g a.i./ha) was 100 and the “AVEFA Obsd.” value (wild oat (AVEFA); 250 g a.i./ha) was 15. The “AVEFA Obsd.” value (wild oat (AVEFA); 500 g a.i./ha) was 47, the “SETFA Obsd.” value (giant foxtail (SETFA); 250 g a.i./ha) was 35 and the “SETFA Obsd.” value (giant foxtail (SETFA); 500 g a.i./ha) was 67. For the same compound, the “ECHCG Obsd.” value (barnyardgrass (ECHCG); 250 g a.i./ha) was 62, the “ECHCG Obsd.” value (barnyardgrass (ECHCG); 500 g a.i./ha) was 98 and the “XANST Obsd.” value (cocklebur (XANST); 250 g a.i./ha) was 93. The “XANST Obsd.” value (cocklebur (XANST); 500 g a.i./ha) was 100, the “ALOMY Obsd.” value (blackgrass (ALOMY); 250 g a.i./ha) was 25 and the “ALOMY Obsd.” value (blackgrass (ALOMY); 500 g a.i./ha) was 43. The “IPOCO Obsd.” value (morningglory (IPOCO); 250 g a.i./ha) was 92, the “IPOCO Obsd.” value (morningglory (IPOCO); 500 g a.i./ha) was 100 and the “TRZAS Obsd.” value (wheat (TRZAS); 250 g a.i./ha) was 30. For the same compound, the “TRZAS Obsd.” value (wheat (TRZAS); 500 g a.i./ha) was 40, the “ABUTH Obsd.” value (velvetleaf (ABUTH); 250 g a.i./ha) was 77 and the “ABUTH Obsd.” value (velvetleaf (ABUTH); 500 g a.i./ha) was 100. The “ZEAMD Obsd.” value (corn (ZEAMD); 250 g a.i./ha) was 20 and the “ZEAMD Obsd.” value (corn (ZEAMD); 500 g a.i./ha) was 28.

In the case of `Cc1[nH]c(=O)n(C(C)(C)C)c(=O)c1Cl` [terbacil], the “DIGSA Obsd.” value (large crabgrass (DIGSA); 250 g a.i./ha) is reported as 45, the “DIGSA Obsd.” value (large crabgrass (DIGSA); 500 g a.i./ha) is reported as 48 and the “BRADC Obsd.” value (Surinam grass (BRADC); 250 g a.i./ha) is reported as 75. For the same compound, the “BRADC Obsd.” value (Surinam grass (BRADC); 500 g a.i./ha) was 73, the “AMARE Obsd.” value (pigweed (AMARE); 250 g a.i./ha) was 63 and the “AMARE Obsd.” value (pigweed (AMARE); 500 g a.i./ha) was 97. For the same compound, the “CHEAL Obsd.” value (lambsquarters (CHEAL); 250 g a.i./ha) was 93, the “CHEAL Obsd.” value (lambsquarters (CHEAL); 500 g a.i./ha) was 100 and the “AVEFA Obsd.” value (wild oat (AVEFA); 250 g a.i./ha) was 68. The “AVEFA Obsd.” value (wild oat (AVEFA); 500 g a.i./ha) was 97, the “SETFA Obsd.” value (giant foxtail (SETFA); 250 g a.i./ha) was 18 and the “SETFA Obsd.” value (giant foxtail (SETFA); 500 g a.i./ha) was 55. For the same compound, the “ECHCG Obsd.” value (barnyardgrass (ECHCG); 250 g a.i./ha) was 15, the “ECHCG Obsd.” value (barnyardgrass (ECHCG); 500 g a.i./ha) was 63 and the “XANST Obsd.” value (cocklebur (XANST); 250 g a.i./ha) was 68. For the same compound, the “XANST Obsd.” value (cocklebur (XANST); 500 g a.i./ha) was 97, the “ALOMY Obsd.” value (blackgrass (ALOMY); 250 g a.i./ha) was 62 and the “ALOMY Obsd.” value (blackgrass (ALOMY); 500 g a.i./ha) was 97. The “IPOCO Obsd.” value (morningglory (IPOCO); 250 g a.i./ha) was 78, the “IPOCO Obsd.” value (morningglory (IPOCO); 500 g a.i./ha) was 100 and the “TRZAS Obsd.” value (wheat (TRZAS); 250 g a.i./ha) was 55. For the same compound, the “TRZAS Obsd.” value (wheat (TRZAS); 500 g a.i./ha) was 90, the “ABUTH Obsd.” value (velvetleaf (ABUTH); 250 g a.i./ha) was 92 and the “ABUTH Obsd.” value (velvetleaf (ABUTH); 500 g a.i./ha) was 100. For the same compound, the “ZEAMD Obsd.” value (corn (ZEAMD); 250 g a.i./ha) was 30 and the “ZEAMD Obsd.” value (corn (ZEAMD); 500 g a.i./ha) was 75.

With `CN(C)c1nc(=O)n(C2CCCCC2)c(=O)n1C` [hexazinone] the “DIGSA Obsd.” value (large crabgrass (DIGSA); 100 g a.i./ha) was 38, the “DIGSA Obsd.” value (large crabgrass (DIGSA); 200 g a.i./ha) was 53 and the “BRADC Obsd.” value (Surinam grass (BRADC); 100 g a.i./ha) was 62. For the same compound, the “BRADC Obsd.” value (Surinam grass (BRADC); 200 g a.i./ha) was 70, the “AMARE Obsd.” value (pigweed (AMARE); 100 g a.i./ha) was 88 and the “AMARE Obsd.” value (pigweed (AMARE); 200 g a.i./ha) was 80. For the same compound, the “CHEAL Obsd.” value (lambsquarters (CHEAL); 100 g a.i./ha) was 78, the “CHEAL Obsd.” value (lambsquarters (CHEAL); 200 g a.i./ha) was 87 and the “AVEFA Obsd.” value (wild oat (AVEFA); 100 g a.i./ha) was 53. For the same compound, the “AVEFA Obsd.” value (wild oat (AVEFA); 200 g a.i./ha) was 62, the “SETFA Obsd.” value (giant foxtail (SETFA); 100 g a.i./ha) was 28 and the “SETFA Obsd.” value (giant foxtail (SETFA); 200 g a.i./ha) was 45. The “ECHCG Obsd.” value (barnyardgrass (ECHCG); 100 g a.i./ha) was 15, the “ECHCG Obsd.” value (barnyardgrass (ECHCG); 200 g a.i./ha) was 53 and the “XANST Obsd.” value (cocklebur (XANST); 100 g a.i./ha) was 100. The “XANST Obsd.” value (cocklebur (XANST); 200 g a.i./ha) was 100, the “ALOMY Obsd.” value (blackgrass (ALOMY); 100 g a.i./ha) was 40 and the “ALOMY Obsd.” value (blackgrass (ALOMY); 200 g a.i./ha) was 78. For the same compound, the “IPOCO Obsd.” value (morningglory (IPOCO); 100 g a.i./ha) was 92, the “IPOCO Obsd.” value (morningglory (IPOCO); 200 g a.i./ha) was 100 and the “TRZAS Obsd.” value (wheat (TRZAS); 100 g a.i./ha) was 35. The “TRZAS Obsd.” value (wheat (TRZAS); 200 g a.i./ha) was 60, the “ABUTH Obsd.” value (velvetleaf (ABUTH); 100 g a.i./ha) was 82 and the “ABUTH Obsd.” value (velvetleaf (ABUTH); 200 g a.i./ha) was 77. The “ZEAMD Obsd.” value (corn (ZEAMD); 100 g a.i./ha) was 45 and the “ZEAMD Obsd.” value (corn (ZEAMD); 200 g a.i./ha) was 53.
